From US20250325553A1, “METHODS OF TREATING CANCER” (FOGHORN THERAPEUTICS INC., priority 2022, published 2025)
Where two headings read alike, the source gives them in different places.

How the values were obtained:
[1] = test system: subjects with metastatic uveal melanoma; assay: Phase 1 dose escalation clinical trial, dose limiting toxicity; assay type: in vivo; conditions: one subject treated at the 7.5 mg dose; improved with a dose hold
Description: (§1) A Phase 1 dose escalation clinical trial of Compound A is conducted. The trial is primarily intended to determine the maximum tolerated dose (MTD) and/or recommended phase 2 dose of the compound when administered orally to subjects with metastatic uveal melanoma.
(§2) In this ongoing study, Compound A has been administered at dose levels of 2.5 mg once a day (QD), 5 mg QD, 7.5 mg QD, and 10 mg QD to 17 subjects with metastatic uveal melanoma.

[2] = Phase 1 dose escalation clinical trial, preliminary pharmacokinetics; assay type: in vivo; conditions: preliminary PK analysis
Description: as §1, §2

[3] = test system: metastatic uveal melanoma; assay: Phase 1 dose escalation clinical trial, tumor response; assay type: in vivo, human; conditions: 2.5-10 mg QD oral, 17 subjects with metastatic uveal melanoma
Description: as §1, §2

[4] = Population PK model of orally administered Compound A patient data; assay type: in vivo, human
Description: A population PK model based on orally administered Compound A dosing data in a total of 10 patients with metastatic uveal melanoma (UM) and advanced hematologic malignancies (e.g., acute myeloid leukemia (AML)) was performed.
Nonlinear mixed-effects models were fitted to concentration vs. time data of FHD-286. Various compartmental models with linear elimination (1-, 2- and 3-compartment), absorption models, structures of omega on clearances, volumes and absorption parameters (diagonal and block) were developed to assess the PK of Compound A.
Overall, a two-compartment model with linear elimination, a zero-order oral absorption, and a lag time of absorption adequately characterized the concentration-time profiles of Compound A.
Exploratory analysis of covariate effects was performed with appropriate plots presenting relationships between the ETAs (e.g., values reflecting the difference between and individual's parameter value and that of the population) of PK parameters to identify any remaining covariate trends. […] Therefore a “Multiple Dose Effect” on CL was included in the model to account for this change over time.
No other covariates were included as part of the model.

For `COC[C@H](NC(=O)c1ccn(S(C)(=O)=O)c1)C(=O)Nc1nc(-c2cccc(N3C[C@@H](C)O[C@@H](C)C3)n2)cs1` [Compound A, N-(1-((4-(6-(2,6-dimethylmorpholino)pyridin-2-yl)thiazol-2-yl)amino)-3-methoxy-1-oxopropan-2-yl)-1-(methylsulfonyl)-1H-pyrrole-3-carboxamide], the dose limiting toxicity [1] was “Grade 3 keratitis”, the half-life ([2]; oral 2.5, 5, 7.5, 10 mg QD, subjects with metastatic uveal melanoma) was “long half-life” and the “plasma concentrations of the compound” value ([2]; oral 2.5-10 mg QD dose levels) was “increase with increasing dose”. For the same compound, the tumor response [3] was “Stable disease and reductions in tumor burden”, the “clearance (CL) over time” value ([4]; after multiple doses) was “reduction in clearance” and the “Vc, Estimate” value ([4]; final PK model parameter) was 54.6 L. The “Tlag, Estimate” value ([4]; final PK model parameter, lag time of absorption) was 0.452 h, the “Dur, Estimate” value ([4]; final PK model parameter, zero-order oral absorption, two-compartment model, 10 patients (UM, AML)) was 1.77 h and the clearance ([4]; human, in vivo, oral, final PK model parameter, linear elimination, read-out: CL, Estimate (converted)) was 67.8 mL/min. It also gave a clearance ([4]; human, in vivo, oral, final PK model parameter, read-out: CLp, Estimate (converted)) of 510 mL/min and a Vd ([4]; human, in vivo, oral, final PK model parameter, read-out: Vd, Estimate) of 165 L.
